Calls of active or inactive are those of the source. The rule behind the calls is not given here.
Columns and labels:
A549/CDDP [1] = test: Disruption of redox homeostasis in human A549/DDP cells assessed as increase in ROS level at 0 to 9 uM measured after 48 hrs; type: functional, cell-based; conditions: dose 0-9 µM
A549/CDDP [2] = test: Disruption of redox homeostasis in human A549/DDP cells assessed as reduction in GSH level at 0 to 9 uM measured after 48 hrs; type: functional, cell-based; conditions: dose 0-9 µM
NCI-H460 = test: Anticancer activity against human NCI-H460 cells assessed as inhibition of cell growth incubated for 48 hrs by crystal violet staining based analysis; type: functional; conditions: NCI-H460, 48 h
MCF7 = test: Anticancer activity against human MCF7 cells assessed as inhibition of cell growth incubated for 48 hrs by crystal violet staining based analysis; type: functional; conditions: MCF7, 48 h
[3] = biological target: T1, Serine/threonine-protein kinase PLK1 (Homo sapiens, UniProt P53350); test: Inhibition of PLK1 in human A549/DDP cells assessed as reduction in PLK1 phosphorylation measured after 48 hrs by Western blot analysis; type: cell-based
[4] = biological target: T1, Serine/threonine-protein kinase PLK1; test: Inhibition of PLK1 in human A549/DDP cells assessed as reduction in protein abundance measured after 48 hrs by Western blot analysis; type: cell-based
A549/CDDP [5] = test: Induction of cell cycle arrest at G2/M phase in human A549/DDP cells at 0 to 15 uM measured after 48 hrs by RNase A/PI staining based flow cytometry analysis; type: functional; conditions: dose 0-15 µM
A549 [6] = test: Induction of morphological changes in human A549 cells assessed as increase in mitotic catastrophe in nucleus at 0 to 3 uM measured after 48 hrs by immunofluorescence based laser confocal microscopic analysis; type: functional, cell-based; conditions: dose 0-3 µM
A549 [7] = test: Anticancer activity against human A549 cells assessed as inhibition of cell growth incubated for 48 hrs by crystal violet staining based analysis; type: functional; conditions: A549, 48 h
[8] = biological target: T1, Serine/threonine-protein kinase PLK1; test: Binding affinity to FLAG-tagged PLK1 PBD region (unknown origin) transfected in human A549 cells at 10 uM incubated for 1 hr by coimmunoprecipitation-MS analysis; type: cell-based
A549/CDDP [9] = test: Effect on CDK2 protein expression in human A549/DDP cells assessed as effect on protein abundance at 0 to 6 uM measured after 48 hrs by Western blot analysis; type: functional, cell-based; conditions: dose 0-6 µM
A549 [10] = test: Induction of mitotic catastrophe in human A549 cells assessed as reduction in PRC1 recruitment by PLK1 in anaphase at 1.5 to 3 uM measured after 48 hrs by immunostaining based laser confocal microscopic analysis; type: functional, cell-based; conditions: dose 1.5-3 µM
A549 [11] = test: Induction of mitotic catastrophe in human A549 cells assessed as downregulation of CDC25 protein expression at 1.5 to 6 uM measured after 48 hrs by Western blot analysis; type: functional, cell-based; conditions: dose 1.5-6 µM
[12] = GSH reactivity in human A549 cells assessed as increase in fluorescence intensity measured after 48 hrs; type: ADME, cell-based; conditions: a549, 48 h, dose 0-9 µM
A549/CDDP [13] = test: Disruption of redox homeostasis in human A549/DDP cells assessed as induction of cell death; type: functional, cell-based
A549/CDDP [14] = test: Antitumor activity against human A549/DDP cells assessed as male BALB/c nude mouse assessed as reduction in tumor growth at 30 to 50 mg/kg, ip administered every 2 days for 32 days and measured 3 times a week; type: functional, organism-based; conditions: dose 30-50 mg/kg, time 32.0 day
A549/CDDP [15] = test: Antitumor activity against human A549/DDP cells assessed as male BALB/c nude mouse assessed as tumor growth inhibition at 50 mg/kg, ip administered every 2 days for 32 days and measured 3 times a week relative to control; type: functional; conditions: 768 h, time 32 day, read-out: TGI
A549/CDDP [16] = test: Antitumor activity against human A549/DDP cells assessed as male BALB/c nude mouse assessed as increase in survival time at 30 to 50 mg/kg, ip administered every 2 days for 32 days; type: functional, organism-based; conditions: dose 30-50 mg/kg, time 32.0 day
A549/CDDP [17] = test: Antitumor activity against human A549/DDP cells assessed as male BALB/c nude mouse assessed as median survival time at 30 mg/kg, ip administered every 2 days for 32 days (reference value: 38 days); type: functional; conditions: time 32 day
A549/CDDP [18] = test: Antitumor activity against human A549/DDP cells assessed as male BALB/c nude mouse assessed as median survival time at 50 mg/kg, ip administered every 2 days for 32 days (reference value: 38 days); type: functional; conditions: time 32 day
A549/CDDP [19] = test: Antitumor activity against human A549/DDP cells assessed as male BALB/c nude mouse assessed as reduction in cell proliferation by measuring reduction in […] positive cells in tumor at 30 to 50 mg/kg, ip administered every 2 days for 32 days by immunohistochemistry; type: functional, organism-based; conditions: dose 30-50 mg/kg, time 32.0 day
[20] = Toxicity in male BALB/c nude mouse xenografted with human A549/DDP cells assessed as change in heart index at 30 mg/kg, ip administered every 2 days for 32 days; type: organism-based, A549/CDDP; conditions: in vivo, 768 h, time 32 day
[21] = Toxicity in male BALB/c nude mouse xenografted with human A549/DDP cells assessed as change in liver index at 30 to 50 mg/kg, ip administered every 2 days for 32 days; type: organism-based, A549/CDDP; conditions: in vivo, 768 h, dose 30-50 mg/kg, time 32 day
[22] = Toxicity in male BALB/c nude mouse xenografted with human A549/DDP cells assessed as change in kidney index at 30 to 50 mg/kg, ip administered every 2 days for 32 days; type: organism-based, A549/CDDP; conditions: in vivo, 768 h, dose 30-50 mg/kg, time 32 day
[23] = Toxicity in male BALB/c nude mouse xenografted with human A549/DDP cells assessed as heart damage at 30 to 50 mg/kg, ip administered every 2 days for 32 days by H and E staining based analysis; type: organism-based, A549/CDDP; conditions: in vivo, 768 h, dose 30-50 mg/kg, time 32 day
[24] = Antiproliferative activity against human gefitinib resistant NCI-H1975 cells assessed as inhibition of cell growth incubated for 48 hrs by crystal violet staining based analysis; type: functional
[25] = Toxicity in male BALB/c nude mouse xenografted with human gefitinib resistant NCI-H1975 cells assessed as lung damage at 30 mg/kg, po administered every 2 days for 20 days and measured 3 times a week by H and E staining based analysis; type: organism-based; conditions: in vivo, 480 h, time 20 day

T1 sequence (P53350 whole entry): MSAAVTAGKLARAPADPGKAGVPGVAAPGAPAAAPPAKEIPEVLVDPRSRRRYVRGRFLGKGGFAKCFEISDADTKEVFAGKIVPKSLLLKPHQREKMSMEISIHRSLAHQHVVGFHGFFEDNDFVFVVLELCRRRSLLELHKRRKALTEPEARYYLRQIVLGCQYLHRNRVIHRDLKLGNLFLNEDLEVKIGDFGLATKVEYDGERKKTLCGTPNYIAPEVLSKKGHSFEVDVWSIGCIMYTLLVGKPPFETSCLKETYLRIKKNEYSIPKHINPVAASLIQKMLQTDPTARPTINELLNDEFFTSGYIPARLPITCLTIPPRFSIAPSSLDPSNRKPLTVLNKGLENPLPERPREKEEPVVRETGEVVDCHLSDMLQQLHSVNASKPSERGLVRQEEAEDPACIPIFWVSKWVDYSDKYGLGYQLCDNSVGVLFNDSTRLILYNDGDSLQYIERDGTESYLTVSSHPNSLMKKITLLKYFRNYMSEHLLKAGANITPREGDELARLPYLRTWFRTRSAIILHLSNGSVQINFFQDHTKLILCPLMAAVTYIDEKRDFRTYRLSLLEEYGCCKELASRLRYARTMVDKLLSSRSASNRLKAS

In the case of CN(C)CCN1C(=O)c2cccc3c(S(=O)(=O)NCc4ccc(F)cc4)ccc(c23)C1=O, the Activity (A549/CDDP [1]) is reported as “Active”, the Activity (A549/CDDP [2]) is reported as “Active” and the IC50 (NCI-H460) is reported as 2.31 µM. For the same compound, the IC50 (MCF7) was 6.54 µM, the inhibition [3] was “Active” and the inhibition [4] was “Active”. The Activity (A549/CDDP [5]) was “Active”, the Activity (A549 [6]) was “Active” and the IC50 (A549 [7]) was 10.6 µM. For the same compound, the Activity [8] was “Active”, the Activity (A549/CDDP [9]) was “Active” and the Activity (A549 [10]) was “Active”. The Activity (A549 [11]) was “Active”, the Drug metabolism [12] was “Metabolite_Detected” and the Activity (A549/CDDP [13]) was “Active”. For the same compound, the Activity (A549/CDDP [14]) was “Active”, the inhibition in vivo at 50 mg/kg (A549/CDDP [15]) was 62% and the Activity (A549/CDDP [16]) was “Active”. For the same compound, the MSD (A549/CDDP [17]) was 53 days, the MSD (A549/CDDP [18]) was 62 days and the Activity (A549/CDDP [19]) was “Active”. The Activity [20] was “Toxic”, the Activity [21] was “Non-Toxic” and the Activity [22] was “Non-Toxic”. The Activity [23] was “Non-Toxic”, the IC50 [24] was 7.83 µM and the Activity [25] was “Non-Toxic”.

— ChEMBL document CHEMBL5550126, “Identification of naphthalimide-derivatives as novel PBD-targeted polo-like kinase 1 inhibitors with efficacy in drug-resistant lung cancer cells” (Eur J Med Chem, 2024)
